Values of other authors as cited in patent publication US20120083772A1, “CORNEAL TREATMENT SYSTEM AND METHOD” (CURVERIGHT LLC, priority 2010, published 2012).

System: living cells

## OO [hydrogen peroxide]
  concentration that can stop the proliferation of living cells: 1000 nM
